In patent publication US9062061B2, “Compound having PARP inhibitory activity” (SANTEN PHARMACEUTICAL CO., LTD., priority 2011, dated 2015):

Target: T1, human recombinant PARP1 (Homo sapiens, UniProt P09874)
T1 construct: purchased Trevigen 4677-096-K
Assay: PARP inhibitory activity measurement test (Universal Colorimetric PARP Assay kit, Trevigen)
Type: biochemical
Conditions: compound concentration: 10 μM, read-out: PARP1 inhibition rate (%)
Description: For evaluating PARP inhibitory activity of the present compound, inhibitory activity of each test compound against human recombinant PARP 1 was measured using Universal Colorimetric PARP Assay kit with Histone-Coated Strip Wells (Cat No.: 4677-096-K) available from Trevigen. The test was conducted according to the procedure in the instruction attached to this kit. The concrete operation will be described below.
After dissolving the test compound in dimethyl sulfoxide, the solution was diluted with a PARP buffer attached to the kit to prepare a 50 μM test compound solution.
In each well of a histone-coated 96-well plate, 10 μL of the test compound solution (50 μM), 15 μL of human recombinant PARP1 (33.3 Unit/mL) and 25 μL of PARP cocktail (containing activated DNA and biotinated NAD) were added, and incubated at room temperature for 1 hour (final reaction amount: 50 μL). Each well was washed twice with 200 μL of 0.1% Triton-X-containing Dulbecco's phosphate buffer, and further washed twice with 200 μL of Dulbecco's phosphate buffer, and then 50 μL of Strep-HRP was added, followed by incubation at room temperature for 1 hour. Each well was washed twice with 200 μL of 0.1% Triton-X-containing Dulbecco's phosphate buffer, and further washed twice with 200 μL of Dulbecco's phosphate buffer, and then 50 μL of TACS-Sapphire coloriometric substrate was added, followed by incubation at room temperature for 15 minutes. After stopping the reaction by adding 50 μL of 0.2 M HCl, absorbance at 450 nm (Abs 450) was measured by a microplate reader. The number of examples in each group was 1 to 2.
Using a well into which dimethyl sulfoxide and a PARP buffer were added in place of the test compound solution and human recombinant PARP1, the above operation was conducted as a negative control.
Using a well into which a PARP buffer containing dimethyl sulfoxide was added in place of the test compound solution, the above operation was conducted as a positive control.
PARP1 inhibition rate (%) was calculated according to the following Formula 1. PARP1 inhibition rate(%)=(AbsB−AbsX)/(AbsB−AbsA)×100 [Formula 1]
AbsA: absorbance of negative control (Abs 450)
AbsB: absorbance of positive control (Abs 450)
AbsX: absorbance of test compound-treated group (Abs 450)

T1 sequence (P09874 whole entry): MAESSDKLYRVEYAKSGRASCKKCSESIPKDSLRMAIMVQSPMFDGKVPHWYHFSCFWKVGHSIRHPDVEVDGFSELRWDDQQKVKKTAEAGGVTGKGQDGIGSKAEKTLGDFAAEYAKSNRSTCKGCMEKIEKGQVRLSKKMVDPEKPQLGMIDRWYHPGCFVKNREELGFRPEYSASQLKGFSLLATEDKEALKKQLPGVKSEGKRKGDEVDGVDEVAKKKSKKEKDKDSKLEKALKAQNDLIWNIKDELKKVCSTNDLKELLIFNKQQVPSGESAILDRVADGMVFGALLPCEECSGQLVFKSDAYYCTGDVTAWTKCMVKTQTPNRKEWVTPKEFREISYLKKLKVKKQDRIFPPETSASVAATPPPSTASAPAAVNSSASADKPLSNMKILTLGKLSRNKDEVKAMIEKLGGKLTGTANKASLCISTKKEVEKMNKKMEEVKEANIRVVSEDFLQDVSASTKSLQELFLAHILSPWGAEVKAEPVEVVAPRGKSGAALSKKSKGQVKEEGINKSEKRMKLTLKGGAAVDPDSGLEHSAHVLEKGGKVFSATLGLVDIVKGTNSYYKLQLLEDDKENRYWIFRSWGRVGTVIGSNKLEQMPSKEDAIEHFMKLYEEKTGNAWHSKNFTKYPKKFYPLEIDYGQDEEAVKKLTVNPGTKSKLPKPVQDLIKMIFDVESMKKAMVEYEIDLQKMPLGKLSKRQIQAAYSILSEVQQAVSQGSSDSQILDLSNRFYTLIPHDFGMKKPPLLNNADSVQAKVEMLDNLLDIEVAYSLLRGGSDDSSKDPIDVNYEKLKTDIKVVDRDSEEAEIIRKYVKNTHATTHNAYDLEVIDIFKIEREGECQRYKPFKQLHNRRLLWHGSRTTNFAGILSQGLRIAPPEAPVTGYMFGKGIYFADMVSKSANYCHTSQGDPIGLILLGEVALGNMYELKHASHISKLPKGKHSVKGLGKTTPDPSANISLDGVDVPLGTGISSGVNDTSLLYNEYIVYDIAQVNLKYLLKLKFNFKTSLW

inhibition at 10 µM	Compound
90%	O=C(c1cc2[nH]c(=O)c3ccccc3n2c1)N1CCN(c2ccc(F)cc2)CC1 [Compound 1-1, 2-[4-(4-Fluorophenyl)piperazine-1-carbonyl]pyrrolo[1,2-a]quinazolin-5(4H)-one]
55%	O=C(c1cc2[nH]c(=O)c3ccccc3n2c1)N1CCN(Cc2ccc(Cl)cc2)CC1 [Compound 1-2, 2-[4-(4-Chlorobenzyl)piperazine-1-carbonyl]pyrrolo[1,2-a]quinazolin-5(4H)-one]
100%	O=C(c1cc2[nH]c(=O)c3ccccc3n2c1)N1CCN(c2nccs2)CC1 [Compound 1-3, 2-[4-(Thiazol-2-yl)piperazine-1-carbonyl]pyrrolo[1,2-a]quinazolin-5(4H)-one]
99%	O=C(c1cc2[nH]c(=O)c3ccccc3n2c1)N1CCN(c2ccccc2)CC1 [Compound 1-4, 2-(4-Phenylpiperazine-1-carbonyl)pyrrolo[1,2-a]quinazolin-5(4H)-one]
71%	O=C(c1cc2[nH]c(=O)c3ccccc3n2c1)N1CCC(c2ccccc2)CC1 [Compound 1-5, 2-(4-Phenylpiperidine-1-carbonyl)pyrrolo[1,2-a]quinazolin-5(4H)-one]
23%	O=C(c1cc2[nH]c(=O)c3ccccc3n2c1)N1CC=C(c2ccccc2)CC1 [Compound 1-6, 2-(4-Phenyl-1,2,3,6-tetrahydropyridine-1-carbonyl)pyrrolo[1,2-a]quinazolin-5(4H)-one]
44%	O=C(c1cc2[nH]c(=O)c3ccccc3n2c1)N1CC=C(c2ccc(Cl)cc2)CC1 [Compound 1-7, 2-[4-(4-Chlorophenyl)-1,2,3,6-tetrahydropyridine-1-carbonyl]pyrrolo[1,2-a]quinazolin-5(4H)-one]
51%	O=C(c1cc2[nH]c(=O)c3ccccc3n2c1)N1CC=C(c2ccc(F)cc2)CC1 [Compound 1-8, 2-[4-(4-Fluorophenyl)-1,2,3,6-tetrahydropyridine-1-carbonyl]pyrrolo[1,2-a]quinazolin-5(4H)-one]
68%	CN1CCN(C(=O)c2cc3[nH]c(=O)c4ccccc4n3c2)CC1 [Compound 1-10, 2-(4-Methylpiperazine-1-carbonyl)pyrrolo[1,2-a]quinazolin-5(4H)-one]
86%	O=C(c1cc2[nH]c(=O)c3ccccc3n2c1)N1CCN(Cc2ccccc2)CC1 [Compound 1-11, 2-(4-Benzylpiperazine-1-carbonyl)pyrrolo[1,2-a]quinazolin-5(4H)-one]
64%	O=C(c1cc2[nH]c(=O)c3ccccc3n2c1)N1CCN(c2ccc(Cl)cc2)CC1 [Compound 1-12, 2-[4-(4-Chlorophenyl)piperazine-1-carbonyl]pyrrolo[1,2-a]quinazolin-5(4H)-one]
67%	O=C(c1cc2[nH]c(=O)c3ccccc3n2c1)N1CCN(Cc2ccc(F)cc2)CC1 [Compound 1-13, 2-[4-(4-Fluorobenzyl)piperazine-1-carbonyl]pyrrolo[1,2-a]quinazolin-5(4H)-one]
44%	O=C(c1cc2[nH]c(=O)c3ccccc3n2c1)N1CCC(c2ccc(F)cc2)CC1 [Compound 1-14, 2-[4-(4-Fluorophenyl)piperidine-1-carbonyl]pyrrolo[1,2-a]quinazolin-5(4H)-one]
74%	O=C(c1cc2[nH]c(=O)c3ccccc3n2c1)N1CCN(c2cccc(F)c2)CC1 [Compound 1-15, 2-[4-(3-Fluorophenyl)piperazine-1-carbonyl]pyrrolo[1,2-a]quinazolin-5(4H)-one]
84%	O=C(c1cc2[nH]c(=O)c3ccccc3n2c1)N1CCc2ccccc2C1 [Compound 1-21, 2-(3,4-Dihydroisoquinoline-2(1H)-carbonyl)pyrrolo[1,2-a]quinazolin-5(4H)-one]

Compound	inhibition at 10 µM
CC(C)(C)OC(=O)N1CCCN(C(=O)c2cc3[nH]c(=O)c4ccccc4n3c2)CC1 [Compound 1-47, 2-[4-(tert-Butoxycarbonyl)homopiperazine-1-carbonyl]pyrrolo[1,2-a]quinazolin-5(4H)-one]	93%
